Reference: US20240317780A1, “RADIOPHARMACEUTICAL SOMATOSTATIN RECEPTOR LIGANDS AND PRECURSORS THEREOF” (Technische Universität München, priority 2021, published 2024)

Each molecule was assayed against T1, SST2 (Homo sapiens, UniProt P30874) (assay: Determination of IC50: competitive binding against [125I]TOC on SST2-transfected CHO cells). Conditions: [125I]TOC reference radioligand, 60 min room temperature.
T1 construct: expressed in transfected cells; host or cells: CHO (Chinese hamster ovary) cells
T1 sequence (P30874 whole entry, species assumed): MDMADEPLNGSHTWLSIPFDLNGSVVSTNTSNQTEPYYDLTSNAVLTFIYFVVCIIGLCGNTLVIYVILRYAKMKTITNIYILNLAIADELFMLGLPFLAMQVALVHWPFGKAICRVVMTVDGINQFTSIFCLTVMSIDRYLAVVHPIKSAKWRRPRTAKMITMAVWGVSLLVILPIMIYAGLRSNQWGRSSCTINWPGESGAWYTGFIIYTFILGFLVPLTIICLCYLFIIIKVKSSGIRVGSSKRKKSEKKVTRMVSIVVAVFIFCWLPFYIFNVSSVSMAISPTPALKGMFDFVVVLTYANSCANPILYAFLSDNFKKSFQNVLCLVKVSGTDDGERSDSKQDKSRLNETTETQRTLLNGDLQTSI
Procedure: The SST2-transfected CHO cells were cultivated in Dulbecco's Modified Eagle Medium/Nutrient Mixture F-12 (DMEM/F-12) with Glutamax-I (1:1) (Gibco), supplemented with 10% fetal calf serum (FCS) and maintained at 37° C. in a humidified 5% CO2 atmosphere. […] After removal of the culture medium, the cells were treated once with 300 μL of HBSS-B (Hank's balanced salt solution, Biochrom, Berlin, Germany, with addition of 1% bovine serum albumin (BSA)) and left with 200 μL HBSS-B. Next, 25 μL per well of solutions, containing either HBSS-B (control) or the respective ligand in increasing concentration (10^−10-10^−4 M in HBSS-B, were added with subsequent addition of 25 μL of
[^125I]TOC ([^125I]Tyr^3-Octreotide) (1.0 nM) in HBSS-B. Each concentration is investigated in triplicate. After 60 min incubation at room temperature, the experiment was terminated by removal of the assay medium and consecutive rinsing with 300 μL of cold PBS. The media of both steps were combined in one fraction and represent the amount of unbound radioligand.
Afterwards, the cells were lysed with 300 μL of 1 M NaOH and united with the 300 μL 1 M NaOH of the following wash step. Quantification of bound and unbound radioligand was accomplished in a γ-counter.
In the case of `C[C@@H](O)[C@H](NC(=O)C1CSSCC(NC(=O)C(Cc2ccccc2)NC(=O)CNC(=O)CNC(=O)CNC(=O)C(CC(=O)O)NC(=O)[C@@H](CC(=O)O)NC(=O)C(CCCNC(N)=O)NC(=O)[C@@H](CNC(=O)C[N+](C)(C)Cc2ccc([Si](F)(C(C)(C)C)C(C)(C)C)cc2)NC(=O)CN2CCN(CC(=O)O)CCN(CC(=O)O)CCN(CC(=O)O)CC2)C(=O)N[C@@H](Cc2ccc(O)cc2)C(=O)NC(Cc2c[nH]c3ccccc23)C(=O)N[C@@H](CCCCN)C(=O)N[C@@H]([C@@H](C)O)C(=O)N1)C(=O)O` (stereo partly drawn) (natLu complex, metal not drawn) [[Lu]46], the IC50 is reported as 4.07 ± 0.52 nM.
For `C[C@@H](O)[C@H](NC(=O)C1CSSCC(NC(=O)C(Cc2ccccc2)NC(=O)[C@@H](CC(N)=O)NC(=O)C(CC(N)=O)NC(=O)[C@@H](CC(=O)O)NC(=O)C(CC(=O)O)NC(=O)[C@@H](CNC(=O)CN2CCN(CC(=O)O)CCN(CC(=O)O)CCN(CC(=O)O)CC2)NC(=O)C[N+](C)(C)Cc2ccc([Si](F)(C(C)(C)C)C(C)(C)C)cc2)C(=O)N[C@@H](Cc2ccc(O)cc2)C(=O)NC(Cc2c[nH]c3ccccc23)C(=O)N[C@@H](CCCCN)C(=O)N[C@@H]([C@@H](C)O)C(=O)N1)C(=O)O` (stereo partly drawn) (natGa complex, metal not drawn) [[Ga]48], the IC50 was 6.1 ± 0.57 nM.
Molecule `C[C@@H](O)[C@H](NC(=O)C1CSSCC(NC(=O)C(Cc2ccccc2)NC(=O)CNC(=O)CNC(=O)CNC(=O)C(CC(=O)O)NC(=O)[C@@H](CC(=O)O)NC(=O)C(CNC(=O)CN2CCN(CC(=O)O)CCN(CC(=O)O)CCN(CC(=O)O)CC2)NC(=O)[C@@H](CN)NC(=O)CNC(=O)CNC(=O)C[N+](C)(C)Cc2ccc([Si](F)(C(C)(C)C)C(C)(C)C)cc2)C(=O)N[C@@H](Cc2ccc(O)cc2)C(=O)NC(Cc2c[nH]c3ccccc23)C(=O)N[C@@H](CCCCN)C(=O)N[C@@H]([C@@H](C)O)C(=O)N1)C(=O)O` (stereo partly drawn) (natLu complex, metal not drawn) [[Lu]53] has an IC50 of 3.36 ± 0.27 nM.
For `C[C@@H](O)[C@H](NC(=O)C1CSSCC(NC(=O)C(Cc2ccccc2)NC(=O)CNC(=O)CNC(=O)[C@@H](CC(=O)O)NC(=O)C(CC(=O)O)NC(=O)[C@@H](CNC(=O)CC[C@H](C(=O)O)N2CCN(CC(=O)O)CCN(CC(=O)O)CCN(CC(=O)O)CC2)NC(=O)C(CN)NC(=O)c2ccc([Si](F)(C(C)(C)C)C(C)(C)C)cc2)C(=O)N[C@@H](Cc2ccc(O)cc2)C(=O)NC(Cc2c[nH]c3ccccc23)C(=O)N[C@@H](CCCCN)C(=O)N[C@@H]([C@@H](C)O)C(=O)N1)C(=O)O` (stereo partly drawn) (natGa complex, metal not drawn) [[Ga]20], the IC50 was 12.7 ± 1 nM.
In the case of `C[C@@H](O)[C@H](NC(=O)C1CSSCC(NC(=O)C(Cc2ccccc2)NC(=O)CNC(=O)CNC(=O)CNC(=O)C(CC(=O)O)NC(=O)[C@@H](CC(=O)O)NC(=O)C(CNC(=O)CN2CCN(CC(=O)O)CCN(CC(=O)O)CCN(CC(=O)O)CC2)NC(=O)[C@@H](CN)NC(=O)CNC(=O)C[N+](C)(C)Cc2ccc([Si](F)(C(C)(C)C)C(C)(C)C)cc2)C(=O)N[C@@H](Cc2ccc(O)cc2)C(=O)NC(Cc2c[nH]c3ccccc23)C(=O)N[C@@H](CCCCN)C(=O)N[C@@H]([C@@H](C)O)C(=O)N1)C(=O)O` (stereo partly drawn) (natLu complex, metal not drawn) [[Lu]52], the IC50 is reported as 3.51 ± 0.41 nM.
`C[C@@H](O)[C@H](NC(=O)C1CSSCC(NC(=O)C(Cc2ccccc2)NC(=O)CNC(=O)CNC(=O)CNC(=O)C(CC(=O)O)NC(=O)[C@@H](CC(=O)O)NC(=O)C(CNC(=O)CN2CCN(CC(=O)O)CCN(CC(=O)O)CCN(CC(=O)O)CC2)NC(=O)[C@@H](CN)NC(=O)CNC(=O)C[N+](C)(C)Cc2ccc([Si](F)(C(C)(C)C)C(C)(C)C)cc2)C(=O)N[C@@H](Cc2ccc(O)cc2)C(=O)NC(Cc2c[nH]c3ccccc23)C(=O)N[C@@H](CCCCN)C(=O)N[C@@H]([C@@H](C)O)C(=O)N1)C(=O)O` (stereo partly drawn) (natGa complex, metal not drawn) [[Ga]52] showed an IC50 of 3.69 ± 0.34 nM.
`C[C@@H](O)[C@H](NC(=O)C1CSSCC(NC(=O)C(Cc2ccccc2)NC(=O)CNC(=O)CNC(=O)CNC(=O)C(CC(=O)O)NC(=O)[C@@H](CC(=O)O)NC(=O)C(CNC(=O)CN2CCN(CC(=O)O)CCN(CC(=O)O)CCN(CC(=O)O)CC2)NC(=O)C[N+](C)(C)Cc2ccc([Si](F)(C(C)(C)C)C(C)(C)C)cc2)C(=O)N[C@@H](Cc2ccc(O)cc2)C(=O)NC(Cc2c[nH]c3ccccc23)C(=O)N[C@@H](CCCCN)C(=O)N[C@@H]([C@@H](C)O)C(=O)N1)C(=O)O` (stereo partly drawn) (natLu complex, metal not drawn) [[Lu]50] showed an IC50 of 3.72 ± 0.61 nM.
Work on `C[C@@H](O)[C@H](NC(=O)C1CSSCC(NC(=O)C(Cc2ccccc2)NC(=O)CNC(=O)CNC(=O)CNC(=O)C(CC(=O)O)NC(=O)[C@@H](CC(=O)O)NC(=O)C(CNC(=O)CN2CCN(CC(=O)O)CCN(CC(=O)O)CCN(CC(=O)O)CC2)NC(=O)[C@@H](CN)NC(=O)C[N+](C)(C)Cc2ccc([Si](F)(C(C)(C)C)C(C)(C)C)cc2)C(=O)N[C@@H](Cc2ccc(O)cc2)C(=O)NC(Cc2c[nH]c3ccccc23)C(=O)N[C@@H](CCCCN)C(=O)N[C@@H]([C@@H](C)O)C(=O)N1)C(=O)O` (stereo partly drawn) (natLu complex, metal not drawn) [[Lu]51] yielded an IC50 of 3.09 ± 0.16 nM.
`C[C@@H](O)[C@H](NC(=O)C1CSSCC(NC(=O)C(Cc2ccccc2)NC(=O)CNC(=O)CNC(=O)CNC(=O)C(CC(=O)O)NC(=O)[C@@H](CC(=O)O)NC(=O)C(CCC(=O)O)NC(=O)[C@@H](CNC(=O)C[N+](C)(C)Cc2ccc([Si](F)(C(C)(C)C)C(C)(C)C)cc2)NC(=O)CN2CCN(CC(=O)O)CCN(CC(=O)O)CCN(CC(=O)O)CC2)C(=O)N[C@@H](Cc2ccc(O)cc2)C(=O)NC(Cc2c[nH]c3ccccc23)C(=O)N[C@@H](CCCCN)C(=O)N[C@@H]([C@@H](C)O)C(=O)N1)C(=O)O` (stereo partly drawn) (natGa complex, metal not drawn) [[Ga]47] showed an IC50 of 7.58 ± 0.58 nM.
`C[C@@H](O)[C@H](NC(=O)C1CSSCC(NC(=O)C(Cc2ccccc2)NC(=O)[C@@H](CC(N)=O)NC(=O)C(CC(N)=O)NC(=O)[C@@H](CC(=O)O)NC(=O)C(CC(=O)O)NC(=O)[C@@H](CNC(=O)CN2CCN(CC(=O)O)CCN(CC(=O)O)CCN(CC(=O)O)CC2)NC(=O)C[N+](C)(C)Cc2ccc([Si](F)(C(C)(C)C)C(C)(C)C)cc2)C(=O)N[C@@H](Cc2ccc(O)cc2)C(=O)NC(Cc2c[nH]c3ccccc23)C(=O)N[C@@H](CCCCN)C(=O)N[C@@H]([C@@H](C)O)C(=O)N1)C(=O)O` (stereo partly drawn) (natLu complex, metal not drawn) [[Lu]48] showed an IC50 of 5.5 ± 1.47 nM.
Molecule `C[C@@H](O)[C@H](NC(=O)C1CSSCC(NC(=O)C(Cc2ccccc2)NC(=O)CNC(=O)CNC(=O)CNC(=O)C(CC(=O)O)NC(=O)[C@@H](CC(=O)O)NC(=O)C(CNC(=O)C[N+](C)(C)Cc2ccc([Si](F)(C(C)(C)C)C(C)(C)C)cc2)NC(=O)CN2CCN(CC(=O)O)CCN(CC(=O)O)CCN(CC(=O)O)CC2)C(=O)N[C@@H](Cc2ccc(O)cc2)C(=O)NC(Cc2c[nH]c3ccccc23)C(=O)N[C@@H](CCCCN)C(=O)N[C@@H]([C@@H](C)O)C(=O)N1)C(=O)O` (stereo partly drawn) (natLu complex, metal not drawn) [[Lu]44] has an IC50 of 3.86 ± 0.23 nM.
With `C[C@@H](O)[C@H](NC(=O)C1CSSCC(NC(=O)C(Cc2ccccc2)NC(=O)CNC(=O)CNC(=O)[C@@H](CC(=O)O)NC(=O)C(CC(=O)O)NC(=O)[C@@H](CNC(=O)CN2CCN(CC(=O)O)CCN(CC(=O)O)CCN(CC(=O)O)CC2)NC(=O)C(CN)NC(=O)c2ccc([Si](F)(C(C)(C)C)C(C)(C)C)cc2)C(=O)N[C@@H](Cc2ccc(O)cc2)C(=O)NC(Cc2c[nH]c3ccccc23)C(=O)N[C@@H](CCCCN)C(=O)N[C@@H]([C@@H](C)O)C(=O)N1)C(=O)O` (stereo partly drawn) (natLu complex, metal not drawn) [[Lu]19] the IC50 was 13.3 ± 1.97 nM.
